Data: PubChem BioAssay (NCI)
Where “and” joins values, the source holds several entries; their conditions need not be identical. Identical values can stand only once.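 Assay format: 96-well plates, 48-hour exposure. GI50: concentration for 50% inhibition of growth. Definition used: TGI = concentration required for complete inhibition of growth.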

Columns and labels:
Test in all cases: NCI anticancer screen, dose series, 48 h
MDA-MB-468 breast = tested on: MDA-MB-468 breast
LOX IMVI melanoma = tested on: LOX IMVI melanoma
SK-MEL-5 melanoma = tested on: SK-MEL-5 melanoma
SK-MEL-2 melanoma = tested on: SK-MEL-2 melanoma
CAKI-1 renal = tested on: CAKI-1 renal
UACC-257 melanoma = tested on: UACC-257 melanoma
BT-549 breast = tested on: BT-549 breast
TK-10 renal = tested on: TK-10 renal
HCC-2998 colon = tested on: HCC-2998 colon
CCRF-CEM leukemia = tested on: CCRF-CEM leukemia
UACC-62 melanoma = tested on: UACC-62 melanoma
DU-145 prostate = tested on: DU-145 prostate
A498 renal = tested on: A498 renal
HOP-62 NSCLC = tested on: HOP-62 NSCLC
M14 melanoma = tested on: M14 melanoma
SF-268 CNS = tested on: SF-268 CNS
NCI-H23 lung = tested on: NCI-H23 lung
KM12 colon = tested on: KM12 colon
NCI-H522 lung = tested on: NCI-H522 lung
SR leukemia = tested on: SR leukemia
A549 NSCLC = tested on: A549 NSCLC
SN12C renal = tested on: SN12C renal
ACHN renal = tested on: ACHN renal
HOP-92 NSCLC = tested on: HOP-92 NSCLC
K-562 leukemia = tested on: K-562 leukemia
SW-620 colon = tested on: SW-620 colon
UO-31 renal = tested on: UO-31 renal
HS 578T breast = tested on: HS 578T breast
NCI/ADR-RES ovarian = tested on: NCI/ADR-RES ovarian
RXF 393 renal = tested on: RXF 393 renal
OVCAR-5 ovarian = tested on: OVCAR-5 ovarian
EKVX NSCLC = tested on: EKVX NSCLC
RPMI-8226 leukemia = tested on: RPMI-8226 leukemia
HCT-15 colon = tested on: HCT-15 colon
PC-3 prostate = tested on: PC-3 prostate
NCI-H226 lung = tested on: NCI-H226 lung
OVCAR-4 ovarian = tested on: OVCAR-4 ovarian
786-0 renal = tested on: 786-0 renal
MCF7 breast = tested on: MCF7 breast
T-47D breast = tested on: T-47D breast
MDA-MB-231 breast = tested on: MDA-MB-231 breast
SNB-75 CNS = tested on: SNB-75 CNS
MOLT-4 leukemia = tested on: MOLT-4 leukemia
MALME-3M melanoma = tested on: MALME-3M melanoma
SNB-19 CNS = tested on: SNB-19 CNS
HT29 colon = tested on: HT29 colon
OVCAR-8 ovarian = tested on: OVCAR-8 ovarian
U251 CNS = tested on: U251 CNS
SK-MEL-28 melanoma = tested on: SK-MEL-28 melanoma
MDA-MB-435 = tested on: MDA-MB-435
HCT-116 colon = tested on: HCT-116 colon
COLO 205 colon = tested on: COLO 205 colon
IGROV1 ovarian = tested on: IGROV1 ovarian
SF-539 CNS = tested on: SF-539 CNS
NCI-H460 lung = tested on: NCI-H460 lung
SK-OV-3 ovarian = tested on: SK-OV-3 ovarian
HL-60(TB) leukemia = tested on: HL-60(TB) leukemia
SF-295 CNS = tested on: SF-295 CNS

## Cn1cc(-c2ccc(-c3ccc(C4=NC5(CC5)C(=O)N4C[C@@H]4CCN(C(=O)C5CC5)C4)cc3)cc2)cn1
MDA-MB-468 breast
  GI50: 16900 nM
  TGI: 40.1 µM

## N#C/C(=C\c1ccc(Br)cc1)n1nnc2ccc(F)cc21
MDA-MB-468 breast
  GI50: 271 nM
  TGI: 0.867 µM

## CCOC(=O)c1c2c(n3ccccc13)C(=O)c1ncccc1C2=O
MDA-MB-468 breast
  GI50: 2770 nM
  TGI: 12 µM

## COc1cc(Nc2ncc(F)c(Nc3ccc4c(n3)N(COP(=O)(O)O)C(=O)C(C)(C)O4)n2)cc(OC)c1OC
MDA-MB-468 breast
  GI50: 1550 nM and 1650 nM
  TGI: 4.74 µM and 5.42 µM

## Cc1cc(N2CCOCC2)cc2[nH]c(-c3c(NC[C@@H](O)c4cccc(Cl)c4)cc[nH]c3=O)nc12
MDA-MB-468 breast
  GI50: 3650 nM
  TGI: 14 µM

## C=C1C(=O)O[C@H]2[C@H]1CC/C(Cn1cc(-c3ccccc3C(F)(F)F)nn1)=C\CC[C@@]1(C)O[C@@H]21
MDA-MB-468 breast
  GI50: 1140 nM
  TGI: 2.8 µM

## Cc1cn(-c2cc(NC(=O)c3ccc(C)c(Nc4nccc(-c5cccnc5)n4)c3)cc(C(F)(F)F)c2)cn1
MDA-MB-468 breast
  GI50: 1800 nM and 1750 nM
  TGI: 4.06 µM and 8.39 µM

## CCN1CCN(CC(=O)N2c3cccc4cccc(c34)N(C(=O)CN3CCN(CC)CC3)C2c2cn(-c3ccccc3)nc2-c2cccc([N+](=O)[O-])c2)CC1
MDA-MB-468 breast
  GI50: 1260 nM
  TGI: 2.76 µM

## O=C(/C=C/c1ccc(C(F)(F)F)cc1)c1ccc(Nc2nc(NCCO)nc(Nc3ccc(Cl)cc3)n2)cc1
MDA-MB-468 breast
  GI50: 5540 nM
  TGI: 21.3 µM

## Cc1ccc(Cl)cc1NC(=O)c1sc2nc3c(cc2c1N)C(=O)CCC3
MDA-MB-468 breast
  GI50: 2740 nM
  TGI: 8.76 µM

## COc1ccc(-c2ccc(-c3ccc(C(=N)N)o3)o2)cc1
MDA-MB-468 breast
  GI50: 864 nM
  TGI: 2.84 µM

## C=C(c1ccc(OC)c(N)c1)c1cc(C)nc2ccccc12
LOX IMVI melanoma
  GI50: < 10 nM
  TGI: 27.4 µM
SK-MEL-5 melanoma
  GI50: < 10 nM
  TGI: < 10 nM
SK-MEL-2 melanoma
  GI50: < 10 nM
  TGI: < 10 nM
CAKI-1 renal
  GI50: < 10 nM
  TGI: > 96.2 µM
UACC-257 melanoma
  GI50: 3.98 µM
  TGI: 75 µM
BT-549 breast
  GI50: < 10 nM
TK-10 renal
  GI50: 18.7 µM
  TGI: > 100 µM
HCC-2998 colon
  GI50: < 10 nM
  TGI: 466 nM
CCRF-CEM leukemia
  GI50: < 10 nM
UACC-62 melanoma
  GI50: < 10 nM
  TGI: 22.4 µM
DU-145 prostate
  GI50: < 10 nM
  TGI: > 100 µM
A498 renal
  GI50: 36.8 µM
  TGI: > 100 µM
HOP-62 NSCLC
  GI50: < 10 nM
  TGI: > 100 µM
M14 melanoma
  GI50: < 10 nM
  TGI: 15.2 µM
SF-268 CNS
  GI50: < 10 nM
  TGI: 37.4 µM
NCI-H23 lung
  GI50: < 10 nM
  TGI: 36.1 µM
KM12 colon
  GI50: < 10 nM
  TGI: 11.5 µM
NCI-H522 lung
  GI50: < 10 nM
  TGI: < 10 nM
SR leukemia
  GI50: < 10 nM
  TGI: 34.6 µM
A549 NSCLC
  GI50: < 10 nM
  TGI: > 100 µM
SN12C renal
  GI50: < 10 nM
  TGI: > 44.9 µM
ACHN renal
  GI50: < 10 nM
  TGI: 61.9 µM
HOP-92 NSCLC
  GI50: 180 nM
  TGI: 43 µM
K-562 leukemia
  GI50: < 10 nM
  TGI: > 93 µM
SW-620 colon
  GI50: < 10 nM
  TGI: > 100 µM
UO-31 renal
  GI50: < 10 nM
  TGI: 64.6 µM
HS 578T breast
  GI50: < 10 nM
  TGI: > 100 µM
NCI/ADR-RES ovarian
  GI50: < 10 nM
  TGI: < 10 nM
RXF 393 renal
  GI50: < 10 nM
  TGI: 79 µM
OVCAR-5 ovarian
  GI50: < 10 nM
  TGI: > 100 µM
EKVX NSCLC
  GI50: < 10 nM
  TGI: > 51.6 µM
RPMI-8226 leukemia
  GI50: < 10 nM
  TGI: 21.3 µM
HCT-15 colon
  GI50: < 10 nM
PC-3 prostate
  GI50: < 10 nM
  TGI: > 100 µM
MDA-MB-468 breast
  GI50: < 10 nM
  TGI: 76.3 µM
NCI-H226 lung
  GI50: < 11.5 nM
  TGI: > 100 µM
OVCAR-4 ovarian
  GI50: 7.41 µM
  TGI: > 100 µM
786-0 renal
  GI50: < 10 nM
  TGI: > 100 µM
MCF7 breast
  GI50: < 10 nM
  TGI: > 37.1 µM
T-47D breast
  GI50: 12.6 µM
  TGI: > 100 µM
MDA-MB-231 breast
  GI50: < 10 nM
  TGI: < 10 nM
SNB-75 CNS
  GI50: < 10 nM
  TGI: 83.7 µM
MOLT-4 leukemia
  GI50: < 10 nM
  TGI: 26.6 µM
MALME-3M melanoma
  GI50: < 10 nM
  TGI: 31.6 µM
SNB-19 CNS
  GI50: < 10 nM
  TGI: > 100 µM
HT29 colon
  GI50: < 10 nM
  TGI: < 10 nM
OVCAR-8 ovarian
  GI50: < 10 nM
U251 CNS
  GI50: < 10 nM
  TGI: > 100 µM
SK-MEL-28 melanoma
  GI50: < 10 nM
  TGI: 98.2 µM
MDA-MB-435
  GI50: < 10 nM
  TGI: 118 nM
HCT-116 colon
  GI50: < 10 nM
  TGI: > 100 µM
COLO 205 colon
  GI50: < 10 nM
  TGI: < 10 nM
IGROV1 ovarian
  GI50: < 10 nM
  TGI: > 100 µM
SF-539 CNS
  GI50: < 10 nM
  TGI: < 10 nM
NCI-H460 lung
  GI50: < 10 nM
  TGI: > 32 µM
SK-OV-3 ovarian
  GI50: < 10 nM
HL-60(TB) leukemia
  GI50: < 10 nM
  TGI: < 10 nM
SF-295 CNS
  GI50: < 10 nM

## S=P(N1CC1)(N1CC1)N1CC1
MDA-MB-468 breast
  GI50: 23700 nM
  TGI: 170 µM

## COC(=O)[C@@H](C)C[C@H](Cc1ccccc1)NC(=O)c1csc([C@@H](C[C@H](C(C)C)N(C)C(=O)[C@@H](NC(=O)[C@H]2CCCCN2C)C2CC2)OC(C)=O)n1
MDA-MB-468 breast
  TGI: > 16.5 µM

## COc1cc(C2CC(c3ccc(Nc4ccnc5cc(Cl)ccc45)cc3)=NN2c2ccc(Cl)cc2)cc(OC)c1OC (configuration not stated)
MDA-MB-468 breast
  GI50: 908 nM
  TGI: 9.67 µM

## O=C1C[C@@H]2/C(=C(O)\C=C\c3ccccc3)C(=O)C=C[C@@H]2O1
MDA-MB-468 breast
  GI50: 1580 nM
  TGI: 3.21 µM

## CN(C)c1ccc(/C=C/c2cc[n+](C)c(/C=C/c3ccc(N(C)C)cc3)c2)cc1
MDA-MB-468 breast
  GI50: 96.9 nM
  TGI: 0.537 µM

## Cc1cnc(C(=O)Nc2nc3ccc(S(=O)(=O)Nc4ccc(C5(C(F)(F)F)CC5)cc4)cc3[nH]2)cn1
MDA-MB-468 breast
  GI50: 224 nM
  TGI: 1.98 µM

## CCN(CC)c1ccc(C(=O)c2ccc(N(CC)CC)cc2)cc1
MDA-MB-468 breast
  GI50: 298 nM
  TGI: 1.66 µM

## O=C(OC[C@H]1O[C@H](OC(=O)c2cc(O)c(O)c(OC(=O)c3cc(O)c(O)c(O)c3)c2)[C@H](OC(=O)c2cc(O)c(O)c(OC(=O)c3cc(O)c(O)c(O)c3)c2)[C@@H](OC(=O)c2cc(O)c(O)c(OC(=O)c3cc(O)c(O)c(O)c3)c2)[C@@H]1OC(=O)c1cc(O)c(O)c(OC(=O)c2cc(O)c(O)c(O)c2)c1)c1cc(O)c(O)c(OC(=O)c2cc(O)c(O)c(O)c2)c1
MDA-MB-468 breast
  GI50: 4750 nM
  TGI: 17.8 µM

## Cc1ncc(C(=O)Nc2ccc(CN3CCN(C)CC3)c(C(F)(F)F)c2)cc1C#Cc1cnc(N)cc1C#N
MDA-MB-468 breast
  GI50: 1290 nM
  TGI: 3.78 µM

## COc1cc(-c2nc(SCCC(C)C)nc(Nc3ccc(S(N)(=O)=O)cc3)c2C#N)cc(OC)c1OC
MDA-MB-468 breast
  GI50: 3070 nM
  TGI: 9.96 µM

## CCNC(=O)O[C@H]1CN[C@H](C#Cc2cc3ncnc(Nc4ccc(OCc5cccc(F)c5)c(Cl)c4)c3s2)C1
MDA-MB-468 breast
  GI50: 155 nM
  TGI: 1.92 µM

## Cc1cnc(C(=O)NNc2nc3sc4c(c3c(=O)n2C)C(C)CCC4)cn1 (configuration not stated)
MDA-MB-468 breast
  GI50: 278 nM
  TGI: 1.07 µM

## C[N+]1=C(/C=C\C=C\c2ccccc2)C(C)(C)c2ccccc21
MDA-MB-468 breast
  GI50: 636 nM
  TGI: 4.55 µM

## O=C1C(Cl)=C(NCc2ccco2)C(=O)c2ccccc21
MDA-MB-468 breast
  GI50: 3710 nM
  TGI: 22 µM

## O=C1CCc2c(sc3[nH]c(=S)n(Cc4ccc(Cl)cc4)c(=O)c23)C1
MDA-MB-468 breast
  GI50: 299 nM
  TGI: 1.21 µM

## C=C1CC2(OC1=O)C(=O)Nc1ccccc12 (configuration not stated)
MDA-MB-468 breast
  GI50: 854 nM
  TGI: 2.7 µM

## OC(c1cc(C23CC4CC(CC(C4)C2)C3)nc2c(Cl)cc(Cl)cc12)C1CCCCN1 (configuration not stated)
MDA-MB-468 breast
  GI50: 1480 nM
  TGI: 2.81 µM

## O=C1C(=O)c2cccnc2-c2ncccc21
MDA-MB-468 breast
  GI50: 193 nM
  TGI: 0.491 µM
